Common to all, as to type: cell-based
One experiment has as its target T1, PRMT1 (Homo sapiens, UniProt Q99873).
T1 construct: we performed a global quantitative proteomic analysis of MCF7 cells using mass spectrometry; endogenous in cells; host or cells: MCF7
The experiment can be described thus: Global proteomics of MCF7 cells, PRMT1 level. The conditions noted are these: 25 nM, 4 h, versus DMSO. The method, then:
Sample preparation for global proteomics analysis. Sample preparation is similar to the previous report (Ma et al. “Strategy Based on Deglycosylation, Multiprotease, and Hydrophilic Interaction Chromatography for Large-Scale Profiling of Protein Methylation” Anal. Chem. 2017, 89 (23), 12909-12917). Briefly, treated MCF7 cells were harvested by washing with PBS buffer (Gibco, pH 7.4) and lysed in RIPA buffer supplemented with protease inhibitors for 20 min, then protein concentration was determined using a BCA Protein Assay Kit (Thermo Pierce, Rockford, IL) per manufacturer instructions. […] The concentrations of the peptide mixture were measured by peptide assay (Thermo Fisher Scientific). […]
LC-MS/MS data acquisition. Samples were analyzed on an Orbitrap Fusion Lumos Tribrid mass spectrometer (Thermo Fisher Scientific) coupled to a Dionex UltiMate 3000 UPLC system. […]
Data analysis. Protein identification and quantification by MaxQuant (version 1.5.3.8) based database searching, using the integrated Andromeda search engine with FDR <1% at peptide and protein levels. […] For label-free protein quantification (LFQ), the MaxQuant LFQ algorithm was used to quantitate the MS signals, and the proteins' intensities were represented in LFQintesnit (Schaab et al. “Analysis of High Accuracy, Quantitative Proteomics Data in the MaxQB Database” Mol. Cell. Proteomics 2012, 11 (3), M111.014068). […]

Another experiment has as its system BAF155 me2a. The experiment can be described thus: BAF155 me2a level in MDA-MB-231 cells, western blot. The conditions noted are these: 0.5 μM, after 48 h. The source says:
FIGS. 7A-7F. […] Cell lysates were collected and CARM1, methyl-BAF155, total BAF155, methyl-PABP1, and total PABP1 levels were detected by Western blot. […] Cell lysates were collected and CARM1, methyl-BAF155, total BAF155 levels were detected by Western blot. […] Cell proliferation rate normalized to day 0 was plotted. […] Migrated cells were stained with 1% crystal violet and the percentage of migrated cells were plotted. Data mean±s.d. ***. P≤0.001.
Western Blot Assay. Cells were harvested and washed with Dulbecco's phosphate-buffered saline (PBS), then lysed with 1×RIPA lysis buffer (50 mM Tris pH 7.5, 150 mM NaCl, 1% NP-40, 0.5% sodium deoxycholate, and 0.1% sodium dodecyl sulfate) supplemented with 1 mM phenylmethylsulfonyl fluoride, 10 μg/mL aprotinin, 1 μM leupeptin, and 10 μg/mL pepstatin on ice for 20 min. The supernatant was collected after spinning down at 15000 RPM at 4 degrees Celsius for 10 min. The concentration of whole lysates was quantified using a Bradford assay. 50-75 μg of cell lysates was boiled in 4× Laemmli Loading Dye and boiled at 100 degrees Celsius for 10 min. 25 μg were run in 8% SDS-PAGE gels and transferred to nitrocellulose membranes. Blots were blocked in 5% skim milk in PBST [PBS and 0.1% Tween 20] for 45 min, then incubated with primary antibodies at 4 degrees Celsius overnight. […]
In general terms: A western blot detects proteins with antibodies after separation by electrophoresis.

A further experiment deals with MDA-MB-231 cells. Nature of the experiment: Cell proliferation assay, MDA-MB-231 cells. The settings on record: 0.5 μM, 7 days. Here is the method: Cell Proliferation Assay. Cell proliferation was measured by direct cell count via high contrast brightfield microscopy. MDA-MB-231 cells (3×10^3/well) were seeded in 100 μL of DMEM into the wells of a 96-well plate. Cells were treated with either DMSO, TP-064, or 3b and refreshed every two days. The plate was imaged daily for 7 days using the High-Contrast Brightfield Kit for Label-Free Cell Counting (BioTek) on the BioTek Imager.

T1 sequence (Q99873 whole entry): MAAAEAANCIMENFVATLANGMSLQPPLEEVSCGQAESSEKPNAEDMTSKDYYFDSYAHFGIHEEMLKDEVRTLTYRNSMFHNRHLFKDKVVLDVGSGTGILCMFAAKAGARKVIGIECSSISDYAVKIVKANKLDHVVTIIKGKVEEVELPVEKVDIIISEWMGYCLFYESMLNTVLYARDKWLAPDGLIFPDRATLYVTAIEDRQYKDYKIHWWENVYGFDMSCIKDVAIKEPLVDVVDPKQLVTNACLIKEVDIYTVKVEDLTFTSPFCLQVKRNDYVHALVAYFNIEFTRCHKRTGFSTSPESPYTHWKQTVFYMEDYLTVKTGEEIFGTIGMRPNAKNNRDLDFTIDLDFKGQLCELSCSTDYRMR

As for `CNCCN1CCC(c2cc(CN(C)C(=O)c3cccc(Oc4ccc(OCC(=O)N5CCC(CN6CCC(CN7CCN(CC(=O)N[C@H](C(=O)N8C[C@H](O)C[C@H]8C(=O)N[C@@H](C)c8ccc(-c9scnc9C)cc8)C(C)(C)C)CC7)CC6)CC5)cc4)c3)ccn2)CC1` [Compound 3b, (2S,4R)-1-((S)-3,3-dimethyl-2-(2-(4-((1-((1-(2-(4-(3-(methyl((2-(1-(2-(methylamino)ethyl)piperidin-4-yl)pyridin-4-yl)methyl)carbamoyl)phenoxy)phenoxy)acetyl)piperidin-4-yl)methyl)piperidin-4-yl)methyl)piperazin-1-yl)acetamido)butanoyl)-4-hydroxy-N—((S)-1-(4-(4-methylthiazol-5-yl)phenyl)ethyl)pyrrolidine-2-carboxamide], the “PRMT1 protein level in proteomics” value on PRMT1 is “not significantly changed”. For the same compound, the “BAF155 me2a level” value with BAF155 me2a is listed as “decrease of BAF155 me2a level was observed”. Also, the Cell proliferation entry in the experiment with MDA-MB-231 cells is reported as “not to inhibit cell proliferation”.

The record behind these values is patent publication US20250222120A1, “SYNTHESIS OF NOVEL SMALL MOLECULE CARM1 DEGRADERS, COMPOUNDS FORMED THEREBY, AND PHARMACEUTICAL COMPOSITIONS CONTAINING THEM” (Wisconsin Alumni Research Foundation, priority 2024, published 2025).
